Reference: US9079859B2, “Synthetic lethal targeting of glucose transport” (AUCKLAND UNISERVICES LIMITED, priority 2011, dated 2015)

Experiments:
Type in all cases: cell-based
[1] = test system: ACHN shVHL cells; assay: Clonogenic survival, ACHN with shRNA to VHL; details: clonogenic survival (FIG. 1E); only the VHL-silenced cells
Procedure: (§1) Cell Viability Assays. For 2,3-bis[2-methoxy-4-nitro-5-sulfophenyl]-2H-tetrazolium-5-carboxanilide (XTT) assays, five thousand cells were plated in 96-well plates. The next day, vehicle (DMSO) or drug was added by serial dilution. Four days later, media were aspirated, XTT solution (0.3 mg/ml of XTT (Sigma), […] N-methyl dibenxopyrazine methyl sulfate (Sigma) in phenol red-free media) was added, and the plates were incubated at 37° C. for 1-2 hours. Metabolism of XTT was quantified by measuring the absorbance at 450 nm. IC50s were calculated using linear interpolation. For clonogenic survival assays, three hundred cells were plated per 60 mm tissue culture dish. The cells were allowed to attach overnight and then treated with vehicle or drug for 14 days. Colonies were fixed and stained with crystal violet (0.1% crystal violet in 95% ethanol). All conditions were measured in triplicate and each experiment was done in duplicate or triplicate. To determine necrosis, cells were treated with drug for a given time point. Media and cells were collected, centrifugated, and resuspended in 0.4% trypan blue (Invitrogen). Live and dead cells were counted on a hematocytometer.

[2] = test system: SN12C; assay: RCC panel sensitivity (Table 2); details: VHL wild-type
[3] = test system: RCC4 cells; assay: Clonogenic survival, RCC4; details: STF-31 5 μM, media replaced, grown for a total of 10 days (FIG. 1D)
Procedure: as §1, with “The cells were allowed to attach overnight and then treated with vehicle or drug for 14 days.” left out

[4] = test system: GLUT1; assay: GLUT1 protein levels
Text: Moreover, the levels of soluble GLUT1 protein were also unaffected by STF-31 (FIG. 8D). […] Active analogs, which selectively kill VHL-deficient cells through glucose uptake, docked within the central channel of GLUT1 (FIG. 3F).

[5] = test system: RCC4 cells; assay: XTT cell viability assay, RCC4; details: four days of treatment; compared to RCC4/VHL; concentration-dependent
Procedure: as §1

[6] = test system: Caki-1; assay: RCC panel sensitivity (Table 2); details: Caki-1, VHL wild-type
[7] = test system: RCC4/VHL cell clones overexpressing HIF; assay: Sensitivity of RCC4/VHL clones overexpressing HIF; details: non-degradable, constitutively active HIF; two clones
Procedure: The hypoxia-inducible factor (HIF) family of transcription factors are VHL targets and we next examined whether toxicity was HIF-dependent (Iliopoulos et al., Nat Med., 1: 822-826 (1995); Maxwell et al., Nature, 399:271-275 (1999); Zimmer et al., Mol Cancer Res., 2:89-95 (2004)). A non-degradable, constitutively active HIF was overexpressed in RCC4/VHL cells. Two individual HIF-overexpressing clones were tested for their sensitivity to STF-31 (Sutphin et al., Cancer Res 67:5896-5905 (2007)). […] Furthermore, the sensitivity of RCCs that lack functional VHL to STF-31 is directly linked to the aberrant up-regulation of HIF.

[8] = test system: RCC4 cells; assay: Necrotic cell death by trypan blue, RCC4; details: 5 μM, 3 days
Procedure: as §1

[9] = test system: RCC4/VHL cells; assay: Necrotic cell death by trypan blue, RCC4/VHL; details: 5 μM, 3 days
Procedure: as §1

[10] = test system: UMRC6; assay: RCC panel sensitivity (Table 2); details: UMRC6, VHL mutant
[11] = test system: UMRC6/VHL; assay: RCC panel sensitivity (Table 2); details: VHL wild-type
[12] = test system: ACHN shVHL; assay: RCC panel sensitivity (Table 2); details: VHL silenced
[13] = test system: RCC4; assay: RCC panel sensitivity (Table 2); details: RCC4, VHL mutant
[14] = test system: RCC4 cells with HIF-1β silenced; assay: Glucose uptake in RCC4 cells with siRNA to HIF-1β
Text: To further investigate the relationship between HIF and STF-31 toxicity, we silenced HIF-1β in RCC4 cells and assessed its affect on glucose uptake (FIG. 6D). Transiently inhibiting HIF-1β, the constitutively expressed binding partner of HIF-1α and HIF-2α reduces HIF activity in RCC4 cells to the levels found in wild-type VHL cells. Glucose uptake was insensitive to treatment with STF-31 when the HIF-1β was silenced in RCC4 cells, further supporting the concept that the HIF-dependent glucose uptake was responsible for the differential toxicity of STF-31 to VHL-deficient renal carcinomas (FIG. 2E).
Glucose Uptake. One hundred thousand cells were plated per well in a six-well plate. The next day, cells were treated with the indicated concentration of drug and incubated for the indicated time. Cells were then washed twice with phosphate-buffered saline, incubated in low-glucose medium for 30 minutes, and 3H-2-deoxyglucose (0.5 μCi) was added in 1 ml of glucose-free media for an additional hour. Cells were washed twice in PBS and lysed (0.2 N NaOH and 0.2% sodium dodecyl sulfate). Glucose uptake was quantified with a scintillation counter.

[15] = test system: LC3; assay: Autophagy markers (vacuoles, LC3 processing); details: RCC4 and RCC4/VHL; 1.25, 2.5 and 5 μM
[16] = test system: ACHN; assay: RCC panel sensitivity (Table 2); details: VHL wild-type

`CC(C)(C)c1ccc(S(=O)(=O)NCc2ccc(C(=O)Nc3cccnc3)cc2)cc1` [STF-31] was tested, and the “sensitivity of ACHN cells with VHL silenced by shRNA” value [1] was “sensitive”, the “3-series sensitivity (sensitivity to STF-31)” value (“3-series sensitivity” for short) [2] was “Yes” and the “RCC4 cells killed following treatment” value [3] was “Approximately 80%”. For the same molecule, the “levels of soluble GLUT1 protein” value ([4]; soluble and insoluble fractions) was “unaffected”, the GLUT1 protein levels ([4]; time- or concentration-dependent (1.25-10 μM, 3 days)) was “did not affect” and the “number of RCC4 cells (cell viability by XTT)” value [5] was “significant decrease”. For the same molecule, the “3-series sensitivity” value [6] was “Yes”, the “effect of ectopic HIF expression in wild-type VHL cells on response to STF-31” value [7] was “sensitized” and the “RCC4 cells exhibiting necrotic cell death” value [8] was “greater than 80%”. The “necrotic cell death of RCC4/VHL cells” value [9] was “relatively insensitive”, the “3-series sensitivity” value [10] was “No” and the “3-series sensitivity” value [11] was “No”. The “3-series sensitivity” value [12] was “Yes”, the “3-series sensitivity” value [13] was “Yes” and the “glucose uptake when HIF-1β was silenced in RCC4 cells” value [14] was “insensitive”. For the same molecule, the “morphologic or biochemical features of autophagy (vacuoles, LC3 processing)” value [15] was “did not induce” and the “3-series sensitivity” value [16] was “No”.
